From US5654273A, “Synducin mediated modulation of tissue repair” (Children's Medical Center Corporation, priority 1994, dated 1997) come the findings set out here.

Where no end group is shown, it is not given here.

What all share (format): cell-based
Data set [1] deals with cell surface syndecan-1. Kind of data set: ELISA for cell surface syndecan-1 on NIH 3T3 cells. The settings on record: for increase of cell surface syndecan-1: confluent NIH 3T3 cells, after 48 hr culture. How it is done:
An in vitro cell culture system was used to explore the mechanism by which cell surface syndecans is induced. NIH 3T3 cells grown to confluence in serum-containing medium were exposed to potential inducers and then evaluated by ELISA for the amount of cell surface syndecan-1.
Syndecan-1 at the cell surface was determined on cells cultured in 96 well tissue culture plates by washing the cells once in Tris buffered saline (TBS) (10 mM Tris, 150 mM NaCl, pH 7.4), fixing 30 min in 2% HEPES-buffered paraformaldehyde, pH 7.4, rinsing three times in TBS and incubating the cells for 30 min in TBS, 0.1% BSA, 5% goat serum. Cells were incubated for 1 hr at room temperature with 5 μg/ml mAb 281-2 (specific for extracellular domain of syndecan-1 core protein) (M. Jalkanen, H. Nguyen, A. C. Rapraeger, N. Kurn, M. Bernfield, J. Cell Biol., 101:976 (1985)) or non-specific rat IgG2A (Zymed, San Francisco, Calif.). Cells were then rinsed 3×5 min with TBS, incubated with alkaline phosphatase conjugated goat anti-rat antibody (Caltag, San Francisco, Calif.) for 30 min, rinsed 3×5 min with TBS, and alkaline phosphatase activity determined by measuring the absorbance at 405 nm of a 1 mg/ml solution of p-nitrophenolphosphate (Sigma, St. Louis, Mo.) in 10 mM Tris, 100 mM NaCl, 5 mM MgCl pH 9.5. Linear rates of absorbance change over time were determined by an automated microplate reader (Molecular Devices, Menlo Park, Calif.). Cells were then rinsed 3× with TBS and cellular protein determined by solubilizing cells in individual wells with 20 μl of 0.1N NaOH followed by protein determination (BCA protein assay, Pierce, Rockford, Ill.).
These measurements correlated strongly over the range of syndecan-1 detected in this study (r=0.96), confirming that the ELISA assay provides a quantitative assessment of cell surface syndecan-1. […]

Data set [2] relates to NIH 3T3 cells. Kind of data set: Cell number, cell protein and morphology of treated NIH 3T3 cells.
In data set [3] the test system is NIH-3T3 cells. Kind of data set: Cell permeability after PR-39 treatment (propium iodide). The settings on record: for fluorescent cells per 20× field: confluent NIH-3T3, 60 minutes at 37° C., 50 μg/ml propium iodide. How it is done: Cell permeability after PR-39 treatment was then measured. NIH-3T3 cells were cultured to confluence on chamber slides. 0, 0.1, 0.5, 1, and 10 μM PR-39 was added to the culture medium and incubated 60 minutes at 37° C.; then 50 μg/ml propium iodide (FW 688) was added.

Data set [4] concerns NIH-3T3 cells. Kind of data set: Uptake and binding of iodinated PR-39. How it is done: FIG. 4 is a graph showing uptake of PR-39 by NIH-3T3 cells.
PR-39 was iodinated using the Iodogen procedure (Pierce T). The influx and efflux kinetics were calculated, accessable compartments were evaluated, and total uptake measured in NIH-3T3 cells.

Data set [5] has as its system NIH-3T3 cells. Kind of data set: Effect on cell morphology (f-actin, rhodamine phalloidin). The settings on record: 2 μM, 72 hr, confluent NIH-3T3. How it is done:
To determine the effect on cell morphology, NIH-3T3 cells were cultured to confluence on coverslips in 24 well plates. 2 μM PR-39 was added the medium and cultured for 72 hr. 2% PFA and acetone were used to fix cells and cells were stained with f-actin with rhodamine phalloidin.

On to PDGF-AB, for which the “increase of cell surface syndecan-1” value in data set [1] is listed as “approximately three to four-fold”. In data set [2], the “increase of cell number” value is “about two-fold”.
As to Triton™, in data set [3] (confluent NIH-3T3, 50 μg/ml propium iodide), the “fluorescent cells, percent” value is 100%. Also, the “fluorescent cells per 20× field” value in data set [3] is recorded as “approximately 50 /20× field”.
With “RRRPRPPYLPRPRPPPFFPPRLPPRIPPGFPPRFPPRFP [PR-39]”, in data set [4] (iodinated PR-39, NIH-3T3 cells), the uptake into cells result was “rapidly associates with and enters NIH-3T3 cells”. For the same substance, the saturation of uptake entry in data set [4] (radioactive PR-39, NIH-3T3 cells) is recorded as “reaches a saturation point”. Besides, in data set [3] (0.1, 0.5, 1 and 10 μM, 60 minutes at 37° C.), the membrane permeability change result is on record as “no large perability changes”. Moreover, the “fluorescent cells per 20× field” value in data set [3] is listed as 2 /20× field. In addition, in data set [1] (NIH-3T3 cells, 43 hours), the “induction of cell surface syndecan-1 by PR-39” value is reported as “concentration dependent manner”. For the same substance, in data set [5], the “change in cell morphology” value is given as “No change in cell morphology”.
As for FGF-2, the “increase of cell surface syndecan-1” value in data set [1] was “approximately three to four-fold”. The “increase of cell number” value in data set [2] is reported as “about two-fold”.
